In assay [1] the target is T1, EGFR-L858R/C797S (H1975-clone #8 cells) (Homo sapiens, UniProt P00533, C797S/L858R).
T1 construct: expressed in transfected cells; host or cells: H1975 (lentiviral transduction, endogenous EGFR knocked out, single clone #8)
Put plainly: EGFR degradation in H1975-clone#8 (L858R/C797S) cells (HTRF assay). The format is cell-based. The following applies: 16 h treatment; for DC50: IC50(DC50) of EGFR degradation; for Dmax: maximum percentage of inhibition (degradation). The gist of the method:
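H1975 cells engineered to carry only homozygous exogenous EGFR L858R/C797S (clone #8) treated 16 h at 37 °C with compound, 8 doses from 10 uM in 5-fold steps, 0.1% DMSO. Remaining EGFR in lysates measured by HTRF; degradation percentage relative to DMSO control, DC50 and Dmax from 4-parameter fit.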
(In general: In TR-FRET formats the signal depends on donor and acceptor labels being close together.)

The target of assay [2] is T2, EGFR L858R (BaF3-L858R cells) (Homo sapiens, UniProt P00533, L858R).
T2 construct: host or cells: BaF3
T2 sequence (P00533 25-1210 L858R): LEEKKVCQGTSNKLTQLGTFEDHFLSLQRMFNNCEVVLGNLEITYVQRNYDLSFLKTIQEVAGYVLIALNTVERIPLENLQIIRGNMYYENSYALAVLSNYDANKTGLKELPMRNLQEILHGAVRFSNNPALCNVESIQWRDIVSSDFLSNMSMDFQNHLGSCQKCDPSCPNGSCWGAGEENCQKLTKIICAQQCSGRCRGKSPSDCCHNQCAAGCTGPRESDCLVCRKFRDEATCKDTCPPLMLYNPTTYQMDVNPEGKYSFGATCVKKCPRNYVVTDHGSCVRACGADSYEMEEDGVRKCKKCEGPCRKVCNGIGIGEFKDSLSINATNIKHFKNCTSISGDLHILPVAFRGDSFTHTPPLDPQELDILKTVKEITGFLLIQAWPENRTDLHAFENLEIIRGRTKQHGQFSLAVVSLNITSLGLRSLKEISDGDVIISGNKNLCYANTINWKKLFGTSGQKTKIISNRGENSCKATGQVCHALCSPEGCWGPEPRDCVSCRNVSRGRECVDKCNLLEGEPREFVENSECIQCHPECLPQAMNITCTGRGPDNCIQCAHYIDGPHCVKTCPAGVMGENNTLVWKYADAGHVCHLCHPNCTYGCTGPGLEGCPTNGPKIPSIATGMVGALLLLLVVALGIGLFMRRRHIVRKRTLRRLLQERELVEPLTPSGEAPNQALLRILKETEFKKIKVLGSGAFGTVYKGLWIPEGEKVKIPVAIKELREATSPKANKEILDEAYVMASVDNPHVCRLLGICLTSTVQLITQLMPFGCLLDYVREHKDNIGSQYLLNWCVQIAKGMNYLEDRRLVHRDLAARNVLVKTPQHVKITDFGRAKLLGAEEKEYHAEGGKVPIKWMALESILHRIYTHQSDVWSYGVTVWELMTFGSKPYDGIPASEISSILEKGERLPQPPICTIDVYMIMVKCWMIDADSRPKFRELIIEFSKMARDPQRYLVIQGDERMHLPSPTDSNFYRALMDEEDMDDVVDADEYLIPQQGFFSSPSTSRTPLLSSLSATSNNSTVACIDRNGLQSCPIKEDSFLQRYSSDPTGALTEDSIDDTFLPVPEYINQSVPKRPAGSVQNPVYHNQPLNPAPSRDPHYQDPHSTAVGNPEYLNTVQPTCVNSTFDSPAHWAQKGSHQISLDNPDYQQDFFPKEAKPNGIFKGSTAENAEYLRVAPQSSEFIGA
Put plainly: EGFR degradation in BaF3-L858R cells (HTRF assay). The format is cell-based. The following applies: 16 h treatment; for DC50: IC50(DC50) of EGFR degradation; for Dmax: maximum percentage of inhibition (degradation). An outline of the steps: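 BaF3-L858R cells were exposed for 16 h at 37° C to 8 doses, 5-fold dilutions starting at 10 uM final, in 0.1% DMSO medium. Lysates were incubated overnight with HTRF antibodies and read at 665/620 nm. Degradation was taken relative to DMSO control, and DC50 and Dmax came from a four-parameter fit.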

This note sets out measurements from patent US20260077051A1, “COMPOUNDS FOR THE DEGRADATION OF EGFR KINASE” (BeOne Medicines I GmbH, priority 2023, published 2026).

SMILES strings stand for the structures.

T1 sequence (P00533 25-1210 C797S/L858R): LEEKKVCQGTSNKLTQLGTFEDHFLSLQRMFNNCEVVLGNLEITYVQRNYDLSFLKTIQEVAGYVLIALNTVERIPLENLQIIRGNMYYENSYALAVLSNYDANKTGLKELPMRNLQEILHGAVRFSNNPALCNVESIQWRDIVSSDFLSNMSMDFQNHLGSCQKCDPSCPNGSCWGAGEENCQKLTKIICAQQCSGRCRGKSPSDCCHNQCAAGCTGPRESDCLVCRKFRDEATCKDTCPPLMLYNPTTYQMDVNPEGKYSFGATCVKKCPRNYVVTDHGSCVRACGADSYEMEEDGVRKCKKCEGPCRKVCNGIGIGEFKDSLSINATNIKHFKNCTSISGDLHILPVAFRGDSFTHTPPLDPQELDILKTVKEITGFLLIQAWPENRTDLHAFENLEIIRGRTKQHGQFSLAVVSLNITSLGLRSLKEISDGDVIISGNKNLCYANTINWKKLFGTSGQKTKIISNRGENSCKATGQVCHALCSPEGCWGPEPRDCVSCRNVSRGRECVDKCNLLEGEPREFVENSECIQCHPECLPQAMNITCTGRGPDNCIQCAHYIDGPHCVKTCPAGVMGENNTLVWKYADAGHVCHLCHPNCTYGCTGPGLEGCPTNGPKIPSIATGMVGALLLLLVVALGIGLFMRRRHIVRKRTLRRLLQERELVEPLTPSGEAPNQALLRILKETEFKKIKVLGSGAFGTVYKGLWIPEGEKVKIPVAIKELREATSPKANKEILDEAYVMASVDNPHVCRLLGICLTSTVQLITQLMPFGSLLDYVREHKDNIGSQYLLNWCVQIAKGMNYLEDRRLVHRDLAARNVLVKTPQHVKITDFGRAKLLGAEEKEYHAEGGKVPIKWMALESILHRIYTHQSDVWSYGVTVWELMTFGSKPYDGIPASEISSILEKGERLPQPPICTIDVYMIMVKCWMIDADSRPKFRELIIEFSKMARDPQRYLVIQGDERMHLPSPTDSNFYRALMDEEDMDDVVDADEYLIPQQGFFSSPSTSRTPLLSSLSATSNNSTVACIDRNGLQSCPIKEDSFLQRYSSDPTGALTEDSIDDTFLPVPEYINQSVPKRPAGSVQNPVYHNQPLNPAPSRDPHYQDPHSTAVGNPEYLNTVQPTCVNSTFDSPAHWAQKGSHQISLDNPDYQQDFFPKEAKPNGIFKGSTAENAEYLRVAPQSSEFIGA

Broadly, the DC50 is the concentration giving 50% degradation. The Dmax is the greatest extent of degradation seen. Take `Cc1cc2cc(n1)-c1cnn(C)c1OCC[C@]1(C)C[C@H]1CN1/C(=N/C2=O)Nc2ccc(N3CCN([C@@H]4CCN(c5ccc(C6CCC(=O)NC6=O)nc5C)C[C@@H]4F)CC3)cc21` (stereo partly drawn) [Example 49, 3-(5-((3S,4R)-3-fluoro-4-(4-((7^1R,7^2S,E)-1^1,2^6,7^2-trimethyl-3-oxo-5^2,5^3-dihydro-1^1H,5^1H-10-oxa-4-aza-5 (2,1)-benzo[d]imidazola-2 (2,4)-pyridina-1 (4,5)-pyrazola-7 (1,2)-cyclopropanacyclodecaphane-5^6-yl)piperazin-1-yl)piperidin-1-yl)-6-methylpyridin-2-yl)piperidine-2,6-dione]: in assay [1], half-maximal degradation (DC50) was put at 0.942 nM and the Dmax is 86.9%. In assay [2], this compound came in with a half-maximal degradation concentration (DC50) of 0.418 nM and a Dmax of 86.7%.

In the case of `Cc1cc2cc(n1)-c1cnn(C)c1OCC[C@]1(C)C[C@H]1CN1/C(=N/C2=O)Nc2ccc(N3CCN(C4CN(C5CCN(c6cc(F)c([C@H]7CCC(=O)NC7=O)c(F)c6)CC5)C4)C[C@@H]3C)cc21` [Example 27, (R)-3-(2,6-difluoro-4-(4-(3-((S)-3-methyl-4-((7^1R,7^2S,E)-1^1,2^6,7^2-trimethyl-3-oxo-5^2,5^3-dihydro-1^1H,5^1H-10-oxa-4-aza-5 (2,1)-benzo[d]imidazola-2 (2,4)-pyridina-1 (4,5)-pyrazola-7 (1,2)-cyclopropanacyclodecaphane-5^6-yl)piperazin-1-yl)azetidin-1-yl)piperidin-1-yl)phenyl)piperidine-2,6-dione], the figures for the DC50 in assay [1] and in assay [2] were 1.31 nM and 1.25 nM, respectively. The figures for the maximal degradation (Dmax) in assay [1] and in assay [2] were 63.6% and 79.1%, respectively.

`Cc1cc2cc(n1)-c1cnn(C)c1OCC[C@]1(C)C[C@H]1CN1/C(=N/C2=O)Nc2ccc(N3CCN(C4CCN(c5ccc(C6CCC(=O)NC6=O)nc5C)CC4)CC3)cc21` (some centres unmarked) [Example 19, 3-(6-methyl-5-(4-(4-((7^1R,7^2S,E)-1^1,2^6,7^2-trimethyl-3-oxo-5^2,5^3-dihydro-1^1H,5^1H-10-oxa-4-aza-5 (2,1)-benzo[d]imidazola-2 (2,4)-pyridina-1 (4,5)-pyrazola-7 (1,2)-cyclopropanacyclodecaphane-5^6-yl)piperazin-1-yl)piperidin-1-yl)pyridin-2-yl)piperidine-2,6-dione]: in assay [1], it took 3 nM to reach half-maximal degradation (DC50) and the Dmax was found to be 75%. In assay [2], this compound had a 50% degradation concentration (DC50) of 1.93 nM and a maximal degradation (Dmax) of 94.5%.

In assay [1], `CCc1nc(C2CCC(=O)NC2=O)ccc1N1CCC(N2CCN(c3ccc4c(c3)N3C[C@@H]5C[C@@]5(C)CCOc5c(cnn5C)-c5cc(cc(C)n5)C(=O)/N=C/3N4)CC2)CC1` (some centres unmarked) [Example 25, 3-(6-ethyl-5-(4-(4-((7^1R,7^2S,E)-1^1,2^6,7^2-trimethyl-3-oxo-5^2,5^3-dihydro-1^1H,5^1H-10-oxa-4-aza-5 (2,1)-benzo[d]imidazola-2 (2,4)-pyridina-1 (4,5)-pyrazola-7 (1,2)-cyclopropanacyclodecaphane-5^6-yl)piperazin-1-yl)piperidin-1-yl)pyridin-2-yl)piperidine-2,6-dione] showed a DC50 of 1.65 nM and a Dmax of 57%. In assay [2], this compound came in with a DC50 of 2.42 nM and a Dmax of 91.5%.

With `Cc1cc2cc(n1)-c1cnn(C)c1OCC[C@H]1C[C@@H]1CN1/C(=N/C2=O)Nc2ccc(N3CCN([C@H]4CCN(c5cc(F)c(C6CCC(=O)NC6=O)nc5C)C[C@H]4F)CC3)cc21` (stereo partly drawn) [Example 30, 3-(5-((3R,4S)-4-(4-((7^1S,7^2R,E)-1^1,2^6-dimethyl-3-oxo-5^2,5^3-dihydro-1^1H,5^1H-10-oxa-4-aza-5 (2,1)-benzo[d]imidazola-2 (2,4)-pyridina-1 (4,5)-pyrazola-7 (1,2)-cyclopropanacyclodecaphane-5^6-yl)piperazin-1-yl)-3-fluoropiperidin-1-yl)-3-fluoro-6-methylpyridin-2-yl)piperidine-2,6-dione], in assay [1], the DC50 worked out at 9.57 nM and the Dmax is 57.5%. In assay [2], this compound yielded a half-maximal degradation concentration (DC50) of 21 nM and a maximal degradation (Dmax) of 89.3%.
